Measured values reported in US20240383901A1, “SUBSTITUTED PYRROLO[2,3-D]PYRIMIDINES, THEIR PREPARATION AND THEIR THERAPEUTIC APPLICATION” (SANOFI, priority 2021, published 2024).

Target: LRRK2 (Homo sapiens, UniProt Q5S007)
Test: LRRK2 WT assay (Assay B, radiometric 33P-ATP filter binding)
Type: biochemical
Details: Assay B (values marked *)
Protocol: LRRK2(human) is incubated with 50 mM HEPES pH 8.0, 0.2 mM EDTA, 0.01% Brij-35, 1% (w/v) BSA, 5 mM DTT, 250 Mm […], 10 mM Magnesium acetate and [[…]]-ATP (specific activity and concentration as required).
The reaction is initiated by the addition of the Mg/ATP mix.

Sequence of LRRK2 (Q5S007 whole entry): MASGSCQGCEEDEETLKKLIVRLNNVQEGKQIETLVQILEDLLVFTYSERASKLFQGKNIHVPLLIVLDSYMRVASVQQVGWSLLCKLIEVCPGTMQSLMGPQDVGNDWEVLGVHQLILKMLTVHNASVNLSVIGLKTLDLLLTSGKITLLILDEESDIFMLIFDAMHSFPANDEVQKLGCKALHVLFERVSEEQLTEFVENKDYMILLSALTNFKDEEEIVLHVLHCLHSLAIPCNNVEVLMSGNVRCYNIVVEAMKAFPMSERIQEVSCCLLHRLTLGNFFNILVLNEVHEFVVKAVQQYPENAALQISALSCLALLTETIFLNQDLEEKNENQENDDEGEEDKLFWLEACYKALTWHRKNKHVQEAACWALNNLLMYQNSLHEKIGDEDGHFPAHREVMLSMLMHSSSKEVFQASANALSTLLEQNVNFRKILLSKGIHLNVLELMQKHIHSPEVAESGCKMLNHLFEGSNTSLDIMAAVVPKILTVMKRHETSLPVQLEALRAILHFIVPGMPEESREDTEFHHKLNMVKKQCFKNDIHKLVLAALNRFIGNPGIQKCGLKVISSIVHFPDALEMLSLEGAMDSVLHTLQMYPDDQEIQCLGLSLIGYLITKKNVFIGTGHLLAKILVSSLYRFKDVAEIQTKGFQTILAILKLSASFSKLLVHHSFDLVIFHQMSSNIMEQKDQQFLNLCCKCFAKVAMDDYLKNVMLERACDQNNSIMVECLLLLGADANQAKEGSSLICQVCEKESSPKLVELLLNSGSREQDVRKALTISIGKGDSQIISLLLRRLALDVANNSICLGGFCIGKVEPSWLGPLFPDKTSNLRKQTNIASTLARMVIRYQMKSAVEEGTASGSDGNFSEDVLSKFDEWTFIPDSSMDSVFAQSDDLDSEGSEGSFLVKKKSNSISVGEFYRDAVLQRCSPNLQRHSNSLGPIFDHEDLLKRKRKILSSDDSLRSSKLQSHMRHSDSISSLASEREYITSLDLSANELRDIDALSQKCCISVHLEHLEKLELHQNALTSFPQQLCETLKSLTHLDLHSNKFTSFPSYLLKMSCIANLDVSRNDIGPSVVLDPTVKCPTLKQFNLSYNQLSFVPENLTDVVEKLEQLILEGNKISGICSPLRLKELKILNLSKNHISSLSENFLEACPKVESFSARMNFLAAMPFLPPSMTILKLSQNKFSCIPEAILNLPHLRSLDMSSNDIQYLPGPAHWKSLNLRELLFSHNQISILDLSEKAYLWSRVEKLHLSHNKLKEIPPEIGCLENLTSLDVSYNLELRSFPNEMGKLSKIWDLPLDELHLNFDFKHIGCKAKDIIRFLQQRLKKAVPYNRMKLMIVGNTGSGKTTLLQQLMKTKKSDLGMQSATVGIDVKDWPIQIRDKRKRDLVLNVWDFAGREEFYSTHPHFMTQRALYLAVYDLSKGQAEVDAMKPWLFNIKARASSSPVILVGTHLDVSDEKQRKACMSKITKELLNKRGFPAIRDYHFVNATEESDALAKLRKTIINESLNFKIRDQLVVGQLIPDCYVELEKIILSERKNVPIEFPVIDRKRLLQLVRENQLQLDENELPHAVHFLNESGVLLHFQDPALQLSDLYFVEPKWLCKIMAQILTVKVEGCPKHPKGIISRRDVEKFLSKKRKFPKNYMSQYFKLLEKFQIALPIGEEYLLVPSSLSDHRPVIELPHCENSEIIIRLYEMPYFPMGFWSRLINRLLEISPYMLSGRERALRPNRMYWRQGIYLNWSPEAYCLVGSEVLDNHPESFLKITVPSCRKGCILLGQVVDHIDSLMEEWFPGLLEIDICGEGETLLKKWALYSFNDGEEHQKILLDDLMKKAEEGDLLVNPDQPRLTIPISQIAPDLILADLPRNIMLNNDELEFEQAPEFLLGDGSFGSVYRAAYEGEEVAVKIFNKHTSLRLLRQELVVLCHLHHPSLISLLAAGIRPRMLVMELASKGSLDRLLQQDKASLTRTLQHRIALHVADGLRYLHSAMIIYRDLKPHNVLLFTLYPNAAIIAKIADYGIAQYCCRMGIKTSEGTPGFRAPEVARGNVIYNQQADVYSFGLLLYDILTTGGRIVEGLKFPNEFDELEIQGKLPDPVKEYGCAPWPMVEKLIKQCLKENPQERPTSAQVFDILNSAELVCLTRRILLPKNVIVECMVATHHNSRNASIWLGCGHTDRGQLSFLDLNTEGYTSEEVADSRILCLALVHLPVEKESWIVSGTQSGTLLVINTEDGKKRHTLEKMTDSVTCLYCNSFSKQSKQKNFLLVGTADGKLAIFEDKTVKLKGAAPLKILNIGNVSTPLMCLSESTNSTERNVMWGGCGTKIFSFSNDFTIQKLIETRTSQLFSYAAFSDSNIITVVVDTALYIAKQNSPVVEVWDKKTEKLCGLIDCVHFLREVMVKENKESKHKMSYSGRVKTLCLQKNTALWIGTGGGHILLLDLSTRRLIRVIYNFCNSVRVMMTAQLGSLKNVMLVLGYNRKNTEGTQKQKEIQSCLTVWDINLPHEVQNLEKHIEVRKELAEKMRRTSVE

| Structure (SMILES) | IC50 [nM] |
| --- | --- |
| CC[C@@H](C)Oc1nn(C)cc1Nc1ncc2cc(C#N)n([C@@H]3COC[C@@H]3OC)c2n1 [Example 66, 2-((3-((R)-sec-Butoxy)-1-methyl-1H-pyrazol-4-yl)amino)-7-((3R,4R)-4-methoxytetrahydrofuran-3-yl)-7H-pyrrolo[2,3-d]pyrimidine-6-carbonitrile] | 119 |
| CC[C@H](C)Oc1nn(C)cc1Nc1ncc2cc(C#N)n([C@@H]3COC[C@@H]3OC)c2n1 [Example 67, 2-((3-((S)-sec-Butoxy)-1-methyl-1H-pyrazol-4-yl)amino)-7-((3R,4R)-4-methoxytetrahydrofuran-3-yl)-7H-pyrrolo[2,3-d]pyrimidine-6-carbonitrile] | 297 |
| CO[C@H]1COC[C@H]1n1c(C#N)cc2cnc(Nc3ccnc4c3OC(C)(C)CC4)nc21 [Example 68, 2-((2,2-Dimethyl-3,4-dihydro-2H-pyrano[3,2-b]pyridin-8-yl)amino)-7-((3R,4R)-4-methoxytetrahydrofuran-3-yl)-7H-pyrrolo[2,3-d]pyrimidine-6-carbonitrile] | > 1000 |
| CO[C@H]1COC[C@H]1n1c(C#N)cc2cnc(Nc3ccnc4c3O[C@H](C)CCO4)nc21 [Example 69, 7-((3R,4R)-4-Methoxytetrahydrofuran-3-yl)-2-(((R)-2-methyl-3,4-dihydro-2H-[1,4]dioxepino[2,3-b]pyridin-9-yl)amino)-7H-pyrrolo[2,3-d]pyrimidine-6-carbonitrile] | 597 |
| CC(C)Oc1nn(C)cc1Nc1ncc2cc(C#N)n(C3COC3)c2n1 [Example 75, 2-((3-Isopropoxy-1-methyl-1 H-pyrazol-4-yl)amino)-7-(oxetan-3-yl)-7H-pyrrolo[2,3-d]pyrimidine-6-carbonitrile] | 44 |
| [2H]c1c(Nc2ncc3cc(C#N)n([C@H]4COC[C@@H]4C)c3n2)c(OC2COC2)nn1C [Example 94, 2-((1-Methyl-3-(oxetan-3-yloxy)-1 H-pyrazol-4-yl-5-d)amino)-7-((3R,4R)-4-methyltetrahydrofuran-3-yl)-7H-pyrrolo[2,3-d]pyrimidine-6-carbonitrile] | 7 |
| [2H]c1c(Nc2ncc3cc(C#N)n([C@@H](C)COC)c3n2)c(OC2CC2)nn1COC [Example 95, (S)-2-((3-cyclopropoxy-1-(methoxymethyl)-1H-pyrazol-4-yl-5-d)amino)-7-(1-methoxypropan-2-yl)-7H-pyrrolo[2,3-d]pyrimidine-6-carbonitrile] | 16 |
| [2H]c1c(Nc2ncc3cc(C#N)n([C@H]4COC[C@@H]4C)c3n2)c(OC2COC2C)nn1C (stereo partly drawn) [Example 97, 2-((1-methyl-3-((2-methyloxetan-3-yl)oxy)-1H-pyrazol-4-yl-5-d)amino)-7-((3R,4R)-4-methyltetrahydrofuran-3-yl)-7H-pyrrolo[2,3-d]pyrimidine-6-carbonitrile] | 12 |
| [2H]c1c(Nc2ncc3cc(C#N)n([C@H]4COC[C@@H]4C)c3n2)c(OC2COC2)nn1C([2H])([2H])[2H] [Example 98, 2-((1-(methyl-d3)-3-(oxetan-3-yloxy)-1H-pyrazol-4-yl-5-d)amino)-7-((3R,4R)-4-methyltetrahydrofuran-3-yl)-7H-pyrrolo[2,3-d]pyrimidine-6-carbonitrile] | 12 |
